Data on 30 molecules can be found in US10100058B2, “Fused heterocyclic compounds as CaM kinase inhibitors” (Gilead Sciences, Inc., priority 2016, dated 2018).

For the experiment, the target named is recombinant CaMKIIδ (Homo sapiens (Human), UniProt Q13557). Put plainly: CaMKIIδ biochemical assay (HTRF). Particulars: 10 pM CaMKIIδ, 110 nM calmodulin, 12 μM ATP, 1 hour; read-out: CAMKIID-HTRF-384V2 (IC50 - nM). How it is done: CaMKIIδ Biochemical Assay
The biochemical activity of recombinant CaMKIIδ was measured by monitoring the phosphorylation of a target peptide using Homogenous Time Resolved Fluorescence (HTRF) technology from CisBio Bioassays.

Regarding `N[C@H]1CC[C@@H]2CCCN(C(=O)c3ccnc(-c4cnn5ccc(-c6ccccc6)nc45)c3)[C@@H]21` [Example 99, ((4aS,7S,7aS)-7-aminooctahydro-1H-cyclopenta[b]pyridin-1-yl)(2-(5-phenylpyrazolo[1,5-a]pyrimidin-3-yl)pyridin-4-yl)methanone], the IC50 (in general, the concentration that gives 50% inhibition) is 6.98 nM.

`CCN(CC)[C@@H](C)CNC(=O)c1cc(-c2cnn3ccc(-c4cccs4)nc23)nc(N2CC[C@@H]2C(=O)NC)c1` [Example 290, N—((S)-2-(diethylamino)propyl)-2-((R)-2-(methylcarbamoyl)azetidin-1-yl)-6-(5-(thiophen-2-yl)pyrazolo[1,5-a]pyrimidin-3-yl)isonicotinamide]: the IC50 was determined as 14.1 nM.

For `C[C@@H](CNC(=O)c1ccnc(-c2cnn3ccc(-c4cccs4)nc23)c1)NCC(F)(F)F` [Example 28, (S)-2-(5-(thiophen-2-yl)pyrazolo[1,5-a]pyrimidin-3-yl)-N-(2-((2,2,2-trifluoroethyl)amino)propyl)isonicotinamide], the IC50 turned out to be 53.4 nM.

As for `CCN(CC)[C@@H](C)CNC(=O)c1cc(NCC2(N3CCCC3)COC2)nc(-c2cnn3ccc(-c4cccs4)nc23)c1` [Example 164, (S)—N-(2-(diethylamino)propyl)-2-(((3-(pyrrolidin-1-yl)oxetan-3-yl)methyl)amino)-6-(5-(thiophen-2-yl)pyrazolo[1,5-a]pyrimidin-3-yl)isonicotinamide], the IC50 amounted to 0.38 nM.

Turning to `CCN(CC)[C@@H](C)CNC(=O)c1cc(OCCCOC)nc(-c2cnn3ccc(-c4cccs4)nc23)c1` [Example 351, (S)—N-(2-(diethylamino)propyl)-2-(3-methoxypropoxy)-6-(5-(thiophen-2-yl)pyrazolo[1,5-a]pyrimidin-3-yl)isonicotinamide], the IC50 turned out to be 0.34 nM.

Turning to `CNC(=O)[C@@H]1CCN1c1cc(C(=O)NC[C@H](C)N)cc(-c2cnn3ccc(-c4cccs4)nc23)n1` [Example 305, N—((S)-2-aminopropyl)-2-((S)-2-(methylcarbamoyl)azetidin-1-yl)-6-(5-(thiophen-2-yl)pyrazolo[1,5-a]pyrimidin-3-yl)isonicotinamide], the IC50 turned out to be 51.7 nM.

Consider `COC1CN(c2cc(C(=O)NC[C@H](C)N)cc(-c3cnn4ccc(-c5ccccc5)nc34)n2)C1` [Example 172, (S)—N-(2-aminopropyl)-2-(3-methoxyazetidin-1-yl)-6-(5-phenylpyrazolo[1,5-a]pyrimidin-3-yl)isonicotinamide], for which the IC50 was 85.3 nM.

`CC(C)C(N)CNC(=O)c1ccnc(-c2cnn3ccc(-c4ccccc4)nc23)c1` (stereo not drawn) [Example 47, N-(2-amino-3-methylbutyl)-2-(5-phenylpyrazolo[1,5-a]pyrimidin-3-yl)isonicotinamide]: the IC50 was 35.3 nM.

As to `O=C(c1ccnc(-c2cnn3ccc(-c4ccccc4)nc23)c1)N1CCC2CCNCC21` (stereo not drawn) [Example 95, (octahydro-1H-pyrrolo[2,3-c]pyridin-1-yl)(2-(5-phenylpyrazolo[1,5-a]pyrimidin-3-yl)pyridin-4-yl)methanone], the IC50 came out at 390 nM.

With `CCN(CC)[C@@H](C)CNC(=O)c1cc(-c2cnn3ccc(-c4cccs4)nc23)nc(N2CC(C)(O)C2)c1` [Example 226, (S)—N-(2-(diethylamino)propyl)-2-(3-hydroxy-3-methylazetidin-1-yl)-6-(5-(thiophen-2-yl)pyrazolo[1,5-a]pyrimidin-3-yl)isonicotinamide], the IC50 amounted to 0.1 nM.

Turning to `C[C@@H](NC(=O)c1ccnc(-c2cnn3ccc(-c4cccs4)nc23)c1)[C@@H]1CCCN1` [Example 13, N—((R)-1-((S)-pyrrolidin-2-yl)ethyl)-2-(5-(thiophen-2-yl)pyrazolo[1,5-a]pyrimidin-3-yl)isonicotinamide], the IC50 came to 153 nM.

In the case of `NC[C@H]1CCCCN1C(=O)c1cc(Cl)nc(-c2cnn3ccc(-c4cccs4)nc23)c1` [Example 111, (R)-(2-(aminomethyl)piperidin-1-yl)(2-chloro-6-(5-(thiophen-2-yl)pyrazolo[1,5-a]pyrimidin-3-yl)pyridin-4-yl)methanone], the IC50 was found to be 0.05 nM.

In the case of `CCN(CC)C(=O)[C@@H]1CCN1c1cc(C(=O)NC[C@H](C)N(CC)CC)cc(-c2cnn3ccc(-c4cccs4)nc23)n1` [Example 280, N—((S)-2-(diethylamino)propyl)-2-((S)-2-(diethylcarbamoyl)azetidin-1-yl)-6-(5-(thiophen-2-yl)pyrazolo[1,5-a]pyrimidin-3-yl)isonicotinamide], the IC50 is 0.45 nM.

Consider `CCN(CC)[C@@H](C)CNC(=O)c1cc(OCC2(C)COC2)nc(-c2cnn3ccc(-c4cccs4)nc23)c1` [Example 349, (S)—N-(2-(diethylamino)propyl)-2-((3-methyloxetan-3-yl)methoxy)-6-(5-(thiophen-2-yl)pyrazolo[1,5-a]pyrimidin-3-yl)isonicotinamide], for which the IC50 came to 0.56 nM.

Turning to `O=C(c1ccnc(-c2cnn3ccc(-c4cccs4)nc23)c1)N1C2CCNCC1CC2` (stereo not drawn) [Example 82], the IC50 is 6.14 nM.

For the molecule `CCN(CC)[C@@H](C)CNC(=O)c1cc(OC[C@H]2CCCO2)nc(-c2cnn3ccc(-c4cccs4)nc23)c1` [Example 343, N—((S)-2-(diethylamino)propyl)-2-(((R)-tetrahydrofuran-2-yl)methoxy)-6-(5-(thiophen-2-yl)pyrazolo[1,5-a]pyrimidin-3-yl)isonicotinamide], the IC50 is 0.26 nM.

On to `O=C(NCC1CCCCCN1)c1ccnc(-c2cnn3ccc(-c4cccs4)nc23)c1` (stereo not drawn) [Example 16, N-(azepan-2-ylmethyl)-2-(5-(thiophen-2-yl)pyrazolo[1,5-a]pyrimidin-3-yl)isonicotinamide], for which the IC50 turned out to be 60 nM.

Take `CCN(CC)[C@@H](C)CNC(=O)c1cc(-c2cnn3ccc(-c4ccncc4)nc23)nc(N2CC(OC)C2)c1` [Example 262, (S)—N-(2-(diethylamino)propyl)-2-(3-methoxyazetidin-1-yl)-6-(5-(pyridin-4-yl)pyrazolo[1,5-a]pyrimidin-3-yl)isonicotinamide]: the IC50 turned out to be 6.97 nM.

Take `COC1CN(c2cc(C(=O)NCC34CCCN3CCC4)cc(-c3cnn4ccc(-c5ccccc5)nc34)n2)C1` [Example 161, N-((hexahydro-1H-pyrrolizin-7a-yl)methyl)-2-(3-methoxyazetidin-1-yl)-6-(5-phenylpyrazolo[1,5-a]pyrimidin-3-yl)isonicotinamide]: the IC50 was 105 nM.

In the case of `CCN(CC)[C@@H](C)CNC(=O)c1cc(NCCCO)nc(-c2cnn3ccc(-c4cccs4)nc23)c1` [Example 220, (S)—N-(2-(diethylamino)propyl)-2-((3-hydroxypropyl)amino)-6-(5-(thiophen-2-yl)pyrazolo[1,5-a]pyrimidin-3-yl)isonicotinamide], the IC50 worked out at 0.11 nM.

On to `CCN(CC)[C@@H](C)CNC(=O)c1cc(-c2cnn3ccc(-c4cccs4)nc23)nc(N2CC(NC(=O)c3ncco3)C2)c1` [Example 194, (S)—N-(1-(4-((2-(diethylamino)propyl)carbamoyl)-6-(5-(thiophen-2-yl)pyrazolo[1,5-a]pyrimidin-3-yl)pyridin-2-yl)azetidin-3-yl)oxazole-2-carboxamide], for which the IC50 is 0.19 nM.

On to `CCCN(CC)[C@@H](C)CNC(=O)c1cc(-c2cnn3ccc(-c4cccs4)nc23)nc(N2CC[C@H]2C(=O)NC)c1` [Example 357, N—((S)-2-(ethyl(propyl)amino)propyl)-2-((S)-2-(methylcarbamyl)azetidin-1-yl)-6-(5-(thiophen-2-yl)pyrazolo[1,5-a]pyrimidin-3-yl)isonicotinamide], for which the IC50 came out at 0.27 nM.

As to `CCNC(CNC(=O)c1ccnc(-c2cnn3ccc(-c4ccccc4)nc23)c1)C(C)C` (stereo not drawn) [Example 55, N-(2-(ethylamino)-3-methylbutyl)-2-(5-phenylpyrazolo[1,5-a]pyrimidin-3-yl)isonicotinamide], the concentration for half-maximal inhibition (IC50) turned out to be 12 nM.

With `CCN(CC)[C@@H](C)CNC(=O)c1cc(OCc2cccnc2)nc(-c2cnn3ccc(-c4cccs4)nc23)c1` [Example 354, (S)—N-(2-(diethylamino)propyl)-2-(pyridin-3-ylmethoxy)-6-(5-(thiophen-2-yl)pyrazolo[1,5-a]pyrimidin-3-yl)isonicotinamide], the IC50 is 1.05 nM.

For the molecule `CCN[C@@H](C)CNC(=O)c1cc(N)nc(-c2cnn3ccc(-c4ccccc4)nc23)c1` [Example 121, (S)-2-amino-N-(2-(ethylamino)propyl)-6-(5-phenylpyrazolo[1,5-a]pyrimidin-3-yl)isonicotinamide], the IC50 was 15.7 nM.

For the molecule `CCN(CC)[C@@H](C)CNC(=O)c1cc(-c2cnn3ccc(-c4cccs4)nc23)nc(N2CCC23CCC3)c1` [Example 250, (S)—N-(2-(diethylamino)propyl)-2-(1-azaspiro[3.3]heptan-1-yl)-6-(5-(thiophen-2-yl)pyrazolo[1,5-a]pyrimidin-3-yl)isonicotinamide], the IC50 amounted to 1.61 nM.

Consider `COC1CN(c2cc(C(=O)NC[C@H](C)N)cc(-c3cnn4ccc(-c5cccs5)nc34)n2)C1` [Example 171, (S)—N-(2-aminopropyl)-2-(3-methoxyazetidin-1-yl)-6-(5-(thiophen-2-yl)pyrazolo[1,5-a]pyrimidin-3-yl)isonicotinamide], for which the IC50 turned out to be 18.8 nM.

For `CCN(CC)CCNC(=O)c1cc(-c2cnn3ccc(-c4cccs4)nc23)nc(N2CC(OC)C2)c1` [Example 254, N-(2-(diethylamino)ethyl)-2-(3-methoxyazetidin-1-yl)-6-(5-(thiophen-2-yl)pyrazolo[1,5-a]pyrimidin-3-yl)isonicotinamide], the IC50 was determined as 0.86 nM.

As to `CCN(CC)[C@@H](C)CNC(=O)c1cc(OC)nc(-c2cnn3ccc(-c4cccs4)nc23)c1` [Example 112, (S)—N-(2-(diethylamino)propyl)-2-methoxy-6-(5-(thiophen-2-yl)pyrazolo[1,5-a]pyrimidin-3-yl)isonicotinamide], the IC50 worked out at 0.14 nM.

On to `CCN(CC)[C@@H](C)CNC(=O)c1cc(-c2cnn3ccc(-c4cccs4)nc23)nc(N2CC(C#N)C2)c1` [Example 142, (S)-2-(3-cyanoazetidin-1-yl)-N-(2-(diethylamino)propyl)-6-(5-(thiophen-2-yl)pyrazolo[1,5-a]pyrimidin-3-yl)isonicotinamide], for which the IC50 amounted to 0.1 nM.
